Values joined by “and” are separate entries in the source; they are usually repeats but may differ in a detail not shown here. Equal entries are not always repeated.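 Briefly, cells in 96-well plates were exposed to five compound concentrations for 48 h, and endpoints were estimated by linear interpolation. GI50 marks 50% less growth. TGI marks complete inhibition of growth.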
The compounds below were run on SNB-19 CNS (assay: inhibition of tumour cell growth, NCI panel, 48 h).
With CN(C)C/C=C/C(=O)Nc1cc2c(Nc3ccc(F)c(Cl)c3)ncnc2cc1O[C@H]1CCOC1 the GI50 was 2.76 µM and 2.42 µM and the TGI was 15.7 µM and > 10 µM. In the case of COc1cc(/C=C/C(=O)c2cccc(-n3cc(-c4ccc(Cl)cc4)[nH]c3=O)c2)ccc1O, the GI50 is reported as 3.52 µM and the TGI is reported as 15.6 µM. In the case of CCN(Cc1ccc(F)cc1)c1ccc(CO)c(Br)c1, the GI50 is reported as 15.7 µM and the TGI is reported as 44.2 µM. For Cc1ccc2c(C3C(C#N)=C(N)Oc4cc5ccccc5cc43)cc(=O)oc2c1 (stereo not drawn), the GI50 was 1.79 µM and the TGI was > 100 µM. In the case of COC(=O)c1cc2c(s1)-c1nccc3c1c(nc1ccccc13)C2=O, the GI50 is reported as > 100 µM and the TGI is reported as > 100 µM. In the case of Oc1ccc(Nc2c3ccccc3nc3occ(Cl)c23)cc1, the GI50 is reported as 4.62 µM and the TGI is reported as > 100 µM. For O=C(Nc1cc(C(F)(F)F)ccc1Cl)c1cccc(NC2=C(Cl)C(=O)N(Cc3ccccc3)C2=O)c1, the GI50 was > 100 µM and the TGI was > 100 µM. CC1(Br)Cc2ccccc2C1=O (stereo not drawn) was tested, and the TGI was 81.8 µM. Work on CN(C)C(=S)Sc1ccc([N+](=O)[O-])cc1[N+](=O)[O-] yielded a GI50 of 11 µM and a TGI of 25.1 µM. In the case of CCOC(=O)/C=C/c1ccc(C#Cc2ccccc2)cc1, the GI50 is reported as > 100 µM and the TGI is reported as > 100 µM. O=[P@@]1(c2ccccc2)O[C@H](COCc2ccccc2)[C@@H](OCc2ccccc2)[C@H](OCc2ccccc2)[C@H]1NCc1ccccc1 was tested, and the GI50 was 3.71 µM and the TGI was > 100 µM. For C[C@H]1CN[C@@H]2[C@@H](C)[C@H]3[C@@H](C[C@H]4[C@@H]5CC[C@H]6C[C@@H](N)CC[C@]6(C)[C@H]5CC[C@]34C)O[C@@]2(O)C1, the TGI was 6.96 µM. COc1ccc(C(O)(CCC(C)C)C(CN2CCOCC2)c2ccc(Cl)cc2)cc1 (stereo not drawn) was tested, and the GI50 was 14.8 µM and the TGI was 52.4 µM. In the case of Cn1c(=O)c(Oc2ccc(F)cc2)cc2cnc(NC3CCOCC3)nc21, the GI50 is reported as > 25 µM and the TGI is reported as > 25 µM. For CC1(C)N=C(N)N=C(N)N1c1ccc(CCCCc2ccc(Cl)c(S(=O)(=O)F)c2)c(Cl)c1, the GI50 was 3.07 µM and the TGI was 20.6 µM. With Clc1nc(Cl)nc(Nc2cccc3ccccc23)n1 the GI50 was > 100 µM and the TGI was > 100 µM. Cc1cc2cc3c(=O)[nH]c(=O)[nH]c3nc2cc1C was tested, and the TGI was > 100 µM. In the case of CCc1c(Cl)c(C)cc(O)c1Cl, the TGI is reported as > 100 µM. For CC(C)OC(=O)[C@H](C)NP(=O)(OC[C@H]1O[C@@H](n2ccc(=O)[nH]c2=O)[C@](C)(F)[C@@H]1O)Oc1ccccc1 (stereo partly drawn), the GI50 was > 100 µM and the TGI was > 100 µM. Work on C=COC(=O)N[C@H]1CCc2cc(OC)c(OC)c(OC)c2-c2ccc(SC)c(=O)cc21 yielded a TGI of 24.8 µM. CN(C)c1ncnc2c1ncn2CCn1cnc2c(N(C)C)ncnc21 was tested, and the TGI was > 100 µM. O=C(O)c1ccc(C(=O)O)c2c(C(=O)O)ccc(C(=O)O)c12 was tested, and the TGI was > 100 µM. CSc1nc(NC2OC(COC(C)=O)C(OC(C)=O)C(OC(C)=O)C2OC(C)=O)c(N=CC=Nc2c(NC3OC(COC(C)=O)C(OC(C)=O)C(OC(C)=O)C3OC(C)=O)nc(SC)n(C)c2=O)c(=O)n1C (stereo not drawn) was tested, and the GI50 was 21.1 µM and the TGI was 50 µM and 92.1 µM. In the case of O=S(=O)(Nc1ccc(Cl)cc1Cl)c1ccc(-c2cnc(C3CC3)o2)cc1, the GI50 is reported as 0.538 µM and the TGI is reported as > 100 µM. CCc1ccc(/C=C/c2ccc(O)c3ncccc23)[n+](C)c1 was tested, and the GI50 was 11.5 µM and the TGI was > 100 µM. Compound S=c1[nH]c2c(Cl)c(Cl)c(Cl)c(Cl)c2[nH]1 has a TGI of 81.3 µM. For O=C(/C=C/C=C/c1ccccc1)c1ccccc1, the TGI was 44.4 µM. In the case of Cc1ccc(Nc2oc(-c3ccccc3)nc2[P+](c2ccccc2)(c2ccccc2)c2ccccc2)cc1, the GI50 is reported as 1.04 µM and the TGI is reported as 2.94 µM.

The compounds below were run on TK-10 renal (assay: inhibition of tumour cell growth, NCI panel, 48 h).
With CN(C)C/C=C/C(=O)Nc1cc2c(Nc3ccc(F)c(Cl)c3)ncnc2cc1O[C@H]1CCOC1 the GI50 was < 0.01 µM and 0.00136 µM. COc1cc(/C=C/C(=O)c2cccc(-n3cc(-c4ccc(Cl)cc4)[nH]c3=O)c2)ccc1O was tested, and the GI50 was 6.6 µM and the TGI was > 65.5 µM. Compound CCN(Cc1ccc(F)cc1)c1ccc(CO)c(Br)c1 has a GI50 of 0.021 µM and a TGI of 0.101 µM. Cc1ccc2c(C3C(C#N)=C(N)Oc4cc5ccccc5cc43)cc(=O)oc2c1 (stereo not drawn) was tested, and the GI50 was 17.6 µM and the TGI was > 100 µM. COC(=O)c1cc2c(s1)-c1nccc3c1c(nc1ccccc13)C2=O was tested, and the GI50 was > 100 µM and the TGI was > 100 µM. Oc1ccc(Nc2c3ccccc3nc3occ(Cl)c23)cc1 showed a GI50 of 6.46 µM and a TGI of 50.8 µM. O=C(Nc1cc(C(F)(F)F)ccc1Cl)c1cccc(NC2=C(Cl)C(=O)N(Cc3ccccc3)C2=O)c1 was tested, and the GI50 was 34.2 µM and the TGI was > 100 µM. CC1(Br)Cc2ccccc2C1=O (stereo not drawn) was tested, and the TGI was 29.8 µM. CN(C)C(=S)Sc1ccc([N+](=O)[O-])cc1[N+](=O)[O-] gave a GI50 of 2.29 µM and a TGI of 5.85 µM. For CCOC(=O)/C=C/c1ccc(C#Cc2ccccc2)cc1, the GI50 was > 100 µM and the TGI was > 100 µM. O=[P@@]1(c2ccccc2)O[C@H](COCc2ccccc2)[C@@H](OCc2ccccc2)[C@H](OCc2ccccc2)[C@H]1NCc1ccccc1 was tested, and the GI50 was 3.69 µM and the TGI was > 100 µM. For C[C@H]1CN[C@@H]2[C@@H](C)[C@H]3[C@@H](C[C@H]4[C@@H]5CC[C@H]6C[C@@H](N)CC[C@]6(C)[C@H]5CC[C@]34C)O[C@@]2(O)C1, the TGI was 11.7 µM. COc1ccc(C(O)(CCC(C)C)C(CN2CCOCC2)c2ccc(Cl)cc2)cc1 (stereo not drawn) was tested, and the GI50 was 16.7 µM and the TGI was 31.3 µM. For Cn1c(=O)c(Oc2ccc(F)cc2)cc2cnc(NC3CCOCC3)nc21, the GI50 was > 25 µM and the TGI was > 25 µM. CC1(C)N=C(N)N=C(N)N1c1ccc(CCCCc2ccc(Cl)c(S(=O)(=O)F)c2)c(Cl)c1 was tested, and the GI50 was 12.3 µM and the TGI was 48.8 µM. In the case of Clc1nc(Cl)nc(Nc2cccc3ccccc23)n1, the GI50 is reported as > 100 µM and the TGI is reported as > 100 µM. For Cc1cc2cc3c(=O)[nH]c(=O)[nH]c3nc2cc1C, the TGI was > 100 µM. For CCc1c(Cl)c(C)cc(O)c1Cl, the TGI was > 100 µM. In the case of CC(C)OC(=O)[C@H](C)NP(=O)(OC[C@H]1O[C@@H](n2ccc(=O)[nH]c2=O)[C@](C)(F)[C@@H]1O)Oc1ccccc1 (stereo partly drawn), the GI50 is reported as > 100 µM and the TGI is reported as > 100 µM. With C=COC(=O)N[C@H]1CCc2cc(OC)c(OC)c(OC)c2-c2ccc(SC)c(=O)cc21 the TGI was 86.5 µM. CN(C)c1ncnc2c1ncn2CCn1cnc2c(N(C)C)ncnc21 was tested, and the TGI was > 100 µM. With O=C(O)c1ccc(C(=O)O)c2c(C(=O)O)ccc(C(=O)O)c12 the TGI was > 100 µM. With CSc1nc(NC2OC(COC(C)=O)C(OC(C)=O)C(OC(C)=O)C2OC(C)=O)c(N=CC=Nc2c(NC3OC(COC(C)=O)C(OC(C)=O)C(OC(C)=O)C3OC(C)=O)nc(SC)n(C)c2=O)c(=O)n1C (stereo not drawn) the GI50 was 30.7 µM and the TGI was 50 µM and > 97.1 µM. O=S(=O)(Nc1ccc(Cl)cc1Cl)c1ccc(-c2cnc(C3CC3)o2)cc1 gave a GI50 of 5.03 µM and a TGI of 79.6 µM. CCc1ccc(/C=C/c2ccc(O)c3ncccc23)[n+](C)c1 was tested, and the GI50 was > 100 µM and the TGI was > 100 µM. S=c1[nH]c2c(Cl)c(Cl)c(Cl)c(Cl)c2[nH]1 gave a TGI of 55.4 µM. With O=C(/C=C/C=C/c1ccccc1)c1ccccc1 the TGI was 42.3 µM. Cc1ccc(Nc2oc(-c3ccccc3)nc2[P+](c2ccccc2)(c2ccccc2)c2ccccc2)cc1 gave a GI50 of 1.37 µM and a TGI of 2.93 µM.

Each compound was assayed on OVCAR-8 ovarian (assay: inhibition of tumour cell growth, NCI panel, 48 h).
For CN(C)C/C=C/C(=O)Nc1cc2c(Nc3ccc(F)c(Cl)c3)ncnc2cc1O[C@H]1CCOC1, the GI50 was 1.36 µM and 1.88 µM and the TGI was 5.37 µM and > 6.85 µM. COc1cc(/C=C/C(=O)c2cccc(-n3cc(-c4ccc(Cl)cc4)[nH]c3=O)c2)ccc1O was tested, and the GI50 was 2.39 µM and the TGI was > 27.3 µM. CCN(Cc1ccc(F)cc1)c1ccc(CO)c(Br)c1 showed a GI50 of 9.64 µM and a TGI of 47.1 µM. For Cc1ccc2c(C3C(C#N)=C(N)Oc4cc5ccccc5cc43)cc(=O)oc2c1 (stereo not drawn), the GI50 was 4.47 µM and the TGI was > 100 µM. With COC(=O)c1cc2c(s1)-c1nccc3c1c(nc1ccccc13)C2=O the GI50 was 19.1 µM and the TGI was 48.4 µM. Oc1ccc(Nc2c3ccccc3nc3occ(Cl)c23)cc1 showed a GI50 of 5.5 µM and a TGI of 57.9 µM. For O=C(Nc1cc(C(F)(F)F)ccc1Cl)c1cccc(NC2=C(Cl)C(=O)N(Cc3ccccc3)C2=O)c1, the GI50 was 47.6 µM and the TGI was > 100 µM. In the case of CC1(Br)Cc2ccccc2C1=O (stereo not drawn), the GI50 is reported as 4.11 µM and the TGI is reported as 15.7 µM. CN(C)C(=S)Sc1ccc([N+](=O)[O-])cc1[N+](=O)[O-] was tested, and the GI50 was 3.27 µM and the TGI was 12 µM. With CCOC(=O)/C=C/c1ccc(C#Cc2ccccc2)cc1 the GI50 was > 100 µM and the TGI was > 100 µM. With O=[P@@]1(c2ccccc2)O[C@H](COCc2ccccc2)[C@@H](OCc2ccccc2)[C@H](OCc2ccccc2)[C@H]1NCc1ccccc1 the GI50 was 3.24 µM and the TGI was > 100 µM. C[C@H]1CN[C@@H]2[C@@H](C)[C@H]3[C@@H](C[C@H]4[C@@H]5CC[C@H]6C[C@@H](N)CC[C@]6(C)[C@H]5CC[C@]34C)O[C@@]2(O)C1 gave a TGI of 4.78 µM. Work on COc1ccc(C(O)(CCC(C)C)C(CN2CCOCC2)c2ccc(Cl)cc2)cc1 (stereo not drawn) yielded a GI50 of 16.1 µM and a TGI of 41.5 µM.

Reference: PubChem BioAssay (NCI)
